# Results published in patent US7902225B2, “Mycobacterial inhibitors” (Janssen Pharmaceutica NV, priority 2005, dated 2011).
# System: M. Smegmatis ATCC607
# Experiment: In-vitro anti-bacterial activity against strain M. smegmatis ATCC607 (growth inhibition, Alamar Blue fluorescence)
# Assay type: cell-based
# Settings: 48 hours at 37° C.
# Procedure: D.2. In-vitro Method for Testing Compounds for Anti-bacterial Activity Against Strain M. Smegmatis ATCC607. Flat-bottom, sterile 96well plastic microtiter plates were filled with 180 μl of sterile deionized water, supplemented with 0.25% BSA. Subsequently, stock solutions (7.8× final test concentration) of compounds were added in 45 μl volumes to a series of duplicate wells in column 2 so as to allow evaluation of their effects on bacterial growth. Serial five-fold dilutions (45 μl in 180 μl) were made directly in the microtiter plates from column 2 to 11 using a customised robot system (Zymark Corp., Hopkinton, Mass.). Pipette tips were changed after every 3 dilutions to minimize pipetting errors with high hydrophobic compounds. Untreated control samples with (column 1) and without (column 12) inoculum were included in each microtiter plate. Approximately 250 CFU per well of bacteria inoculum, in a volume of 100 μl in 2.8× Mueller-Hinton broth medium, was added to the rows […]. The same volume of broth medium without inoculum was added to column 12 in row A to H. The cultures were incubated at 37° C. for 48 hours in a humidified 5% CO2 atmosphere (incubator with open air valve and continuous ventilation). At the end of incubation, two days after inoculation, the bacterial growth was quantitated fluorometrically. Therefore Alamar Blue (10×) was added to all wells in a volume of 20 μl and plates were incubated for another 2 hours at […] The fluorescence was read in a computer-controlled fluorometer (Cytofluor, Biosearch) at an excitation wavelength of 530 nm and an emission wavelength of 590 nm (gain 30). The % growth inhibition achieved by the compounds was calculated according to standard methods. The pIC50 was defined as the 50% inhibitory concentration for bacterial growth.
row,Compound,M. smegmatis (pIC50)
1,CN(C)CCC(O)(c1cccc2ccccc12)c1cc(Br)cc2cc(Cc3ccccc3)c(N3CCN(O)CC3)nc12 (stereo not drawn) [Compound 49],6.1
2,CN(C)CCC(O)(c1cccc2ccccc12)c1cc(Br)cc2cc(Cc3ccccc3)c(N(C)C)nc12 (stereo not drawn) [Compound 57],5.8
3,CN(C)CCC(O)(c1cccc2ccccc12)c1cc(Br)cc2cc(Cc3ccccc3)c(-n3ccnc3)nc12 (stereo not drawn) [Compound 46],6.6
4,CN(C)CCC(O)(c1ccccc1)c1cc2nc(N3CCN(C)CC3)c(Cc3ccccc3)cc2cc1Br (stereo not drawn) [Compound 61],5.3
5,COc1nc2cccc(C(O)(CCN(C)C)c3c(F)cccc3F)c2cc1-c1ccccc1 (stereo not drawn) [Compound 28],5.1
6,CN(C)CCC(O)(c1ccccc1)c1cc2nc(N3CCCC3)c(Cc3ccccc3)cc2cc1Br (stereo not drawn) [Compound 58],5.8
7,CN(C)CCC(O)(c1ccccc1)c1cc(Br)cc2cc(Cc3ccccc3)c(NCCCN3CCCC3=O)nc12 (stereo not drawn) [Compound 92],5.2
8,CCCCNc1nc2c(C(O)(CCN(C)C)c3ccccc3)cc(Br)cc2cc1Cc1ccccc1 (stereo not drawn) [Compound 93],5.1
9,CN(C)CCC(O)(c1ccccc1)c1cc(Br)cc2cc(Cc3ccccc3)c(N3CCN(C(=O)c4ccco4)CC3)nc12 (stereo not drawn) [Compound 86],5.7
10,CN(C)CCC(O)(c1cccc2ccccc12)c1cc(Br)cc2cc(Cc3ccccc3)c(N3CCC(Cc4ccccc4)CC3)nc12 (stereo not drawn) [Compound 64],5.2
11,CN(C)CCC(O)(c1ccccc1)c1cc(Br)cc2cc(Cc3ccccc3)c(-n3ccnn3)nc12 (stereo not drawn) [Compound 65],5.2
12,CN(C)CCC(O)(c1ccccc1)c1cc(Br)cc2cc(Cc3ccccc3)c(-n3cncn3)nc12 (stereo not drawn) [Compound 62],5.3
13,COc1cc(-c2ccccc2)c2cc(C(O)(CCN(C)C)c3ccccc3)ccc2n1 (stereo not drawn) [Compound 27],5.2
14,CC1CCN(c2nc3c(C(O)(CCN(C)C)c4ccccc4)cc(Br)cc3cc2Cc2ccccc2)CC1 (stereo not drawn) [Compound 91],5.3
15,CN(C)CCC(O)(c1cccc2ccccc12)c1cc(Br)cc2cc(Cc3ccccc3)c(N3CCN(Cc4ccc5c(c4)OCO5)CC3)nc12 (stereo not drawn) [Compound 45],6.6

# Same assay, conditions: Mycolicibacterium smegmatis, 48 hours at 37° C., read-out: M. smegmatis (pIC50) (converted)
row,Compound,IC50 [nM]
1,COc1nc2c(C(O)(CCN(C)C)c3cc(F)cc(F)c3)cc(Br)cc2cc1-c1ccccc1 (stereo not drawn) [Compound 12],1580
2,CN(C)CCC(O)(c1cccs1)c1cc(Br)cc2cc(Cc3ccccc3)c(-n3ccnc3)nc12 (stereo not drawn) [Compound 53],1260
3,CN(C)CCC(O)(c1ccccc1)c1cc2nc(N3CCN(Cc4ccccc4)CC3)c(Cc3ccccc3)cc2cc1Br (stereo not drawn) [Compound 55],1260
4,COc1nc2c(C(O)(CCN(C)C)c3cccs3)cc(C)cc2cc1Cc1ccccc1 (stereo not drawn) [Compound 16],1580
5,CN(C)CCC(O)(c1cccc2ccccc12)c1cc(Br)cc2cc(Cc3ccccc3)c(N3CCN(C(=O)c4ccco4)CC3)nc12 (stereo not drawn) [Compound 54],1260
6,CN(C)CCC(O)(c1cccc2ccccc12)c1cc(Br)cc2cc(Cc3ccccc3)c(N3CCN(C(c4ccccc4)c4ccccc4)CC3)nc12 (stereo not drawn) [Compound 69],39800
7,COc1nc2cccc(C(O)(CCN(C)C)c3ccc4ccccc4c3)c2cc1-c1ccccc1 (stereo not drawn) [Compound 19],7940
8,COc1nc2c(C(O)(CCN(C)C)c3cccs3)cc(-c3cccnc3)cc2cc1Cc1ccccc1 (stereo not drawn) [Compound 77],12600
9,CN(C)CCC(O)(c1ccccc1)c1cc(Br)cc2cc(Cc3ccccc3)c(N3CCC(C(N)=O)CC3)nc12 (stereo not drawn) [Compound 94],7940
10,CN(C)CCC(O)(c1ccccc1)c1cc(Br)cc2cc(Cc3ccccc3)c(NCCC(c3ccccc3)c3ccccc3)nc12 (stereo not drawn) [Compound 88],2510
11,CC(=O)c1ccc(N2CCN(c3nc4c(C(O)(CCN(C)C)c5ccccc5)cc(Br)cc4cc3Cc3ccccc3)CC2)cc1 (stereo not drawn) [Compound 82],1580
12,COc1nc2c(C(O)(CCN(C)C)c3cccs3)cc(Br)cc2cc1Cc1ccccc1 (stereo not drawn) [Compound 15],7940
13,CN(C)CCC(O)(c1ccccc1)c1cc(Br)cc2cc(Cc3ccccc3)c(N(C)CCc3ccccc3)nc12 (stereo not drawn) [Compound 83],1580
14,CN(C)CCC(O)(Cc1c(-c2ccccc2)c(-c2ccccc2)nc2ccccc12)c1cc(F)cc(F)c1 (stereo not drawn) [Compound 41],31600
15,CN(C)CCC(O)(c1ccco1)c1cc(Br)cc2cc(-c3ccccc3)c(-n3ccnc3)nc12 (stereo not drawn) [Compound 63],6310
16,CN(C)CCC(O)(Cc1c(Cc2ccccc2)c(-c2ccsc2)nc2ccccc12)c1cc(F)cc(F)c1 (stereo not drawn) [Compound 40],7940
17,CN(C)CCC(O)(c1ccccc1)c1cc(Br)cc2cc(Cc3ccccc3)c(N3CCC(Cc4ccccc4)CC3)nc12 (stereo not drawn) [Compound 84],2000
18,COc1nc2c(C(O)(CCN(C)C)c3ccco3)cc(Br)cc2cc1-c1ccccc1 (stereo not drawn) [Compound 26],2000
19,CN(C)CCC(O)(c1ccccc1)c1ccc2nc(-c3cccnc3)cc(-c3ccccc3)c2c1 (stereo not drawn) [Compound 71],1580
20,CN(C)CCC(O)(c1cccc2ccccc12)c1cc(Br)cc2cc(Cc3ccccc3)c(N3CCc4ccccc4C3)nc12 (stereo not drawn) [Compound 50],794
21,CN(C)CCC(O)(Cc1c(-c2ccccc2)c(-c2ccco2)nc2ccccc12)c1cc(F)cc(F)c1 (stereo not drawn) [Compound 39],1260
22,CN(C)CCC(O)(c1cccc2ccccc12)c1cc(Br)cc2cc(Cc3ccccc3)c(N3CCN(Cc4ccccc4)CC3)nc12 (stereo not drawn) [Compound 47],398
23,COc1nc2ccc(C(O)(CCN(C)C)c3cc(F)cc(F)c3)cc2cc1Cc1ccc(C)cc1 (stereo not drawn) [Compound 2],1260
24,CN(C)CCC(O)(c1cc(F)cc(F)c1)c1cccc2nc(-n3cncn3)c(-c3ccccc3)cc12 (stereo not drawn) [Compound 33],31600

row,Compound,IC50 [nM]
1,Cc1cc(-c2ccccc2)c2cc(C(O)(CCN(C)C)c3ccccc3)ccc2n1 (stereo not drawn) [Compound 43],12600
2,CN(C)CCC(O)(c1ccccc1)c1cc(Br)cc2cc(Cc3ccccc3)c(N3CC=CCC3)nc12 (stereo not drawn) [Compound 81],1260
3,CN(C)CCC(O)(Cc1c(Cc2ccccc2)c(-c2ccccc2)nc2ccccc12)c1cc(F)cc(F)c1 (stereo not drawn) [Compound 42],39800
4,Cc1cc(-c2ccccc2)c2cc(C(O)(CCN(C)C)c3ccco3)ccc2n1 (stereo not drawn) [Compound 6],31600
5,COc1nc2cccc(C(O)(CCN(C)C)c3ccccc3)c2cc1-c1ccccc1 (stereo not drawn) [Compound 20],31600
6,CN(C)CCC(O)(c1cccc2ccccc12)c1cc(Br)cc2cc(Cc3ccccc3)c(N3CCN(c4n[nH]c5ccccc45)CC3)nc12 (stereo not drawn) [Compound 48],631
7,CN(C)CCC(O)(c1ccccc1)c1cc(Br)cc2cc(Cc3ccccc3)c(N3CCN(c4ncccn4)CC3)nc12 (stereo not drawn) [Compound 89],2510
8,COc1nc2cccc(C(O)(CCN(C)C)c3cccc4ccccc34)c2cc1-c1ccccc1 (stereo not drawn) [Compound 18],1580
9,COc1nc2cccc(C(O)(CCN(C)C)c3cc(F)cc(F)c3)c2cc1-c1ccccc1 (stereo not drawn) [Compound 1],1260
10,CN(C)CCC(O)(c1cccc2ccccc12)c1cccc2nc(N3CCN(C)CC3)c(-c3ccccc3)cc12 (stereo not drawn) [Compound 36],10000
11,COc1nc2cccc(C(O)(CCN(C)C)c3ccco3)c2cc1-c1ccccc1 (stereo not drawn) [Compound 21],31600
12,CN(C)CCC(O)(c1cc(F)cc(F)c1)c1cc(Br)cc2cc(-c3ccccc3)c(-n3ccnc3)nc12 (stereo not drawn) [Compound 44],1260
13,CN(C)CCC(O)(c1cccc2ccccc12)c1cc(Br)cc2cc(Cc3ccccc3)c(N3CCCC3)nc12 (stereo not drawn) [Compound 52],1000
14,CN(C)CCC(O)(c1ccccc1)c1cc(Br)cc2cc(Cc3ccccc3)c(N(C)C)nc12 (stereo not drawn) [Compound 78],1580
15,CN(C)CCC(O)(c1cc(F)cc(F)c1)c1cccc2nc(N3CCN(C)CC3)c(-c3ccccc3)cc12 (stereo not drawn) [Compound 32],10000
16,CN(C)CCC(O)(c1ccccc1)c1cc(-c2cccnc2)cc2cc(-c3ccccc3)c(-c3cccnc3)nc12 (stereo not drawn) [Compound 76],1580
17,CN(C)CCC(O)(c1ccccc1)c1cc2nc(N3CCN(Cc4ccc5c(c4)OCO5)CC3)c(Cc3ccccc3)cc2cc1Br (stereo not drawn) [Compound 60],2000
18,CN(C)CCC(O)(c1cccs1)c1cc(Br)cc2cc(Cc3ccccc3)c(N(C)C)nc12 (stereo not drawn) [Compound 73],1580
19,CN(C)CCC(O)(c1ccccc1)c1cc(Br)cc2cc(Cc3ccccc3)c(NCCCN3CCOCC3)nc12 (stereo not drawn) [Compound 87],2510
20,CN(C)CCC(O)(Cc1c(Cc2ccccc2)c(N2CCOCC2)nc2ccccc12)c1cc(F)cc(F)c1 (stereo not drawn) [Compound 31],1260
21,CN(C)CCC(O)(Cc1c(Cc2ccccc2)c(N2CCCC2)nc2ccccc12)c1cc(F)cc(F)c1 (stereo not drawn) [Compound 4],251
22,CN(C)CCC(O)(c1ccccc1)c1cc2nc(N(C)C)c(Cc3ccccc3)cc2cc1Br (stereo not drawn) [Compound 67],20000
23,CN(C)CCC(O)(c1ccccc1)c1cccc2nc(N3CCN(C)CC3)c(-c3ccccc3)cc12 (stereo not drawn) [Compound 37],79400
24,COc1nc2c(C(O)(CCN(C)C)c3cc(F)cc(F)c3)cc(-c3cccnc3)cc2cc1-c1ccccc1 (stereo not drawn) [Compound 13],398
